Reference: ChEMBL document CHEMBL5233210, “Pyrazolone structural motif in medicinal chemistry: Retrospect and prospect” (Eur J Med Chem, 2020)
≈ marks a conversion by molar mass, not a printed value.

How the values were obtained:
[1] = system: Mus musculus; experiment: Antihyperglycemic activity in db/db mouse assessed as decrease in blood glucose level at 2 mg/kg; format: functional; design: scale not given: the % may be the effect or the level left
[2] = system: Mus musculus; experiment: Antihyperglycemic activity in db/db mouse assessed as decrease in blood glucose level at 20 mg/kg; format: functional; design: scale not given: the % may be the effect or the level left
[3] = system: Mus musculus; experiment: Antihyperglycemic activity in db/db mouse assessed as decrease in blood glucose level at 100 mg/kg; format: functional; design: scale not given: the % may be the effect or the level left
[4] = species on record: Mus musculus; experiment: Antihyperglycemic activity in mouse assessed as reduction in serum glucose ratio after 2 hrs; format: functional; design: scale not given: the % may be the effect or the level left
[5] = Inhibition of porcine alpha amylase; design: species or system Sus scrofa
[6] = species on record: Mus musculus; experiment: Antihyperglycemic activity in mouse assessed as reduction in serum glucose ratio after 7 days; format: functional; design: scale not given: the % may be the effect or the level left; conditions: time 7 day
[7] = target: Alpha-glucosidase (Saccharomyces cerevisiae S288c, UniProt P53341+P38158+P07265); experiment: Inhibition of Saccharomyces cerevisiae alpha glucosidase; format: protein assay
[8] = species on record: Rattus norvegicus; experiment: Anticonvulsant activity in tryptamine seizure potentiated Wistar rat; format: functional
[9] = target: Cholinesterase (Equus caballus) (UniProt P81908); experiment: Inhibition of equine serum BChE at 10^-3 M relative to control; format: cell-free; conditions: dose 1.0 10^-3M
Cholinesterase (Equus caballus), sequence (P81908 whole entry): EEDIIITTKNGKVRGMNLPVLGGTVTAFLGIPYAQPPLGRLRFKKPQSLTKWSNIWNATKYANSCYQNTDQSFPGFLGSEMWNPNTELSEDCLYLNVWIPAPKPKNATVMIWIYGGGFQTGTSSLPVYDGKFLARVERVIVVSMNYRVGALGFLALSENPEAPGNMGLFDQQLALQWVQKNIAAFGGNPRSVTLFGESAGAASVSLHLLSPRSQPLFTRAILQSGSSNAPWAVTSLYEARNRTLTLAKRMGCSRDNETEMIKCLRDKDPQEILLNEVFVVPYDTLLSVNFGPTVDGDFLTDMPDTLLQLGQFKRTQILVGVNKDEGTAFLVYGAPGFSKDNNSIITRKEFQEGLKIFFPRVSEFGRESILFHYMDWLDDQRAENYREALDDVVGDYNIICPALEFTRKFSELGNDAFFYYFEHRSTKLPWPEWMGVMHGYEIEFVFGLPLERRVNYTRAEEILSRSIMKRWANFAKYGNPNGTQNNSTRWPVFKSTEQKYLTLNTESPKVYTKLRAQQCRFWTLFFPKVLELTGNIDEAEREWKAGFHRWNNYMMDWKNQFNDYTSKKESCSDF

[10] = target: Acetylcholinesterase (Electrophorus electricus, UniProt O42275); experiment: Inhibition of electric eel AChE
Acetylcholinesterase, sequence (O42275 whole entry): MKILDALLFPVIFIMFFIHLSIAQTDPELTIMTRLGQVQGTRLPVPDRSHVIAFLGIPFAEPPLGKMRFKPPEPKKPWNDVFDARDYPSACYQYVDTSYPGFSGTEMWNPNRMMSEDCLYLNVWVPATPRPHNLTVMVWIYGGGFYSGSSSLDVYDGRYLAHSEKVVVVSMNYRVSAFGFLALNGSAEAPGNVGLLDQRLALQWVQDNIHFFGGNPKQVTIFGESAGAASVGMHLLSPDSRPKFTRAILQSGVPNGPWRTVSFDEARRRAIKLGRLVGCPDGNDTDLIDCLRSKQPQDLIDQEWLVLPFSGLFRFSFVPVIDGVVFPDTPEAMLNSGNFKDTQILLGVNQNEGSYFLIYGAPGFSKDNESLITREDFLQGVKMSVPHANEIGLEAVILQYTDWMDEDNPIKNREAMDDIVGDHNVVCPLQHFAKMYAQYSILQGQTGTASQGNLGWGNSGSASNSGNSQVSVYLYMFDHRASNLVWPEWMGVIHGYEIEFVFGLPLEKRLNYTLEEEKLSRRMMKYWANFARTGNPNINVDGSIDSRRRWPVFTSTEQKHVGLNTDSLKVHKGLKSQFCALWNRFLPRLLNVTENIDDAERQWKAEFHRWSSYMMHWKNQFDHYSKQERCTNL

[11] = target: T1, Amine oxidase [flavin-containing] A (Homo sapiens, UniProt P21397); experiment: Inhibition of MAO-A (unknown origin) relative to control
T1 sequence (P21397 whole entry): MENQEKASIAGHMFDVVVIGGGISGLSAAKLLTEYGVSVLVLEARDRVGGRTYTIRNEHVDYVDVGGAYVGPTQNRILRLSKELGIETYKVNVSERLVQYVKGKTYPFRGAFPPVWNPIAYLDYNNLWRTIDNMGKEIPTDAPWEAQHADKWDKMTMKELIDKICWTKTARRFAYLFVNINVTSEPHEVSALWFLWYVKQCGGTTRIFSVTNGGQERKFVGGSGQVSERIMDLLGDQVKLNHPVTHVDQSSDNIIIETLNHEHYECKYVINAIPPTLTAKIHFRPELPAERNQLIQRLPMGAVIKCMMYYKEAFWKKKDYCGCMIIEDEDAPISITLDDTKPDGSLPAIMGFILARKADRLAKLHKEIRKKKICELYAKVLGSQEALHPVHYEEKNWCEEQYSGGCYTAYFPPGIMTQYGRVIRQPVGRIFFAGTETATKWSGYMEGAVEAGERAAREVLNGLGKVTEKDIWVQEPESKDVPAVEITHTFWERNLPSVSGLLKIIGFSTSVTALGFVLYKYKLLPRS

[12] = target: Aldo-keto reductase family 1 member B1 (Homo sapiens, UniProt P15121); experiment: Inhibition of aldose reductase (unknown origin)
[13] = system: PC-12; experiment: Anti amyotrophic lateral sclerosis activity in rat PC-12 cells assessed as decrease in G93A SOD1 aggregate formation relative to control; format: functional; design: scale not given: the % may be the effect or the level left
[14] = system: Streptococcus pyogenes; experiment: Antibacterial activity against Streptococcus pyogenes; format: functional
[15] = system: Geotrichum candidum; experiment: Antifungal activity against Geotrichum candidum; format: functional
[16] = system: Pseudomonas aeruginosa; experiment: Antibacterial activity against Pseudomonas aeruginosa; format: functional
[17] = system: Bacillus subtilis; experiment: Antibacterial activity against Bacillus subtilis; format: functional
[18] = system: Escherichia coli; experiment: Antibacterial activity against Escherichia coli; format: functional
[19] = Selectivity index, ratio of IC50 mouse […] 3T3 cells to MIC for Mycobacterium tuberculosis H37Rv; format: toxicity; conditions: NIH 3T3 cells, read-out: Selectivity Index
[20] = system: Mycobacterium tuberculosis; experiment: Antibacterial activity against Mycobacterium tuberculosis H37Rv; format: functional
[21] = target: Glycogen synthase kinase-3 beta (Homo sapiens, UniProt P49841); experiment: Inhibition of human GSK-3beta
Glycogen synthase kinase-3 beta, sequence (P49841 whole entry): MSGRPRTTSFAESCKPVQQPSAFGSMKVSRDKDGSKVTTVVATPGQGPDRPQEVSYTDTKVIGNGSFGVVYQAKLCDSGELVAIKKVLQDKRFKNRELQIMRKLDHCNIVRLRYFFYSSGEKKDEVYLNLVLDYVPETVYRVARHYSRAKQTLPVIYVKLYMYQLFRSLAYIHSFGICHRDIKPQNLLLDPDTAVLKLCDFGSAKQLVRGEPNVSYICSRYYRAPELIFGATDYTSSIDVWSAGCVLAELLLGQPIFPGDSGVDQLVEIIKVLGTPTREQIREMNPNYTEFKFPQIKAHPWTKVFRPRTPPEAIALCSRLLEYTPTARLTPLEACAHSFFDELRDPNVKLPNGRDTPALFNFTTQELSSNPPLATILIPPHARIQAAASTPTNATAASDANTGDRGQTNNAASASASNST

[22] = target: Liver carboxylesterase 1 (Homo sapiens, UniProt P23141); experiment: Inhibition of human CE1
Liver carboxylesterase 1, sequence (P23141 whole entry): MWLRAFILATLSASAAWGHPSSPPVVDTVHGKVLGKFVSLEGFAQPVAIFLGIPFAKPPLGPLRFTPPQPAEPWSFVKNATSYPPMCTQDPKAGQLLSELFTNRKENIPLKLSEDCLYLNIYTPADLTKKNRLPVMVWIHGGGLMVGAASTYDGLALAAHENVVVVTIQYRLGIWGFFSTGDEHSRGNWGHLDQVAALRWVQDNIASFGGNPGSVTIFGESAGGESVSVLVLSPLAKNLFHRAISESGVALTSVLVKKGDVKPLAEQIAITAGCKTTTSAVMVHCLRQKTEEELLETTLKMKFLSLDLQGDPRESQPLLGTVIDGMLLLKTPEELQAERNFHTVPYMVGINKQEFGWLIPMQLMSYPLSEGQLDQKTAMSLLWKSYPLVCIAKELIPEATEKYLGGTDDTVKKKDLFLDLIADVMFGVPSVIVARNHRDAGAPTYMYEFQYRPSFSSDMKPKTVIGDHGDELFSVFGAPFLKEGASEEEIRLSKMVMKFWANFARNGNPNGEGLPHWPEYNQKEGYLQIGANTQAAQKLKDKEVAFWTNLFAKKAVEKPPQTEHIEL

[23] = target: Amine oxidase [flavin-containing] A (Rattus norvegicus, UniProt P21396); experiment: Inhibition of rat brain synaptosome MAO-A; format: subcellular
Amine oxidase [flavin-containing] A (Rattus norvegicus, UniProt P21396), sequence (P21396 whole entry): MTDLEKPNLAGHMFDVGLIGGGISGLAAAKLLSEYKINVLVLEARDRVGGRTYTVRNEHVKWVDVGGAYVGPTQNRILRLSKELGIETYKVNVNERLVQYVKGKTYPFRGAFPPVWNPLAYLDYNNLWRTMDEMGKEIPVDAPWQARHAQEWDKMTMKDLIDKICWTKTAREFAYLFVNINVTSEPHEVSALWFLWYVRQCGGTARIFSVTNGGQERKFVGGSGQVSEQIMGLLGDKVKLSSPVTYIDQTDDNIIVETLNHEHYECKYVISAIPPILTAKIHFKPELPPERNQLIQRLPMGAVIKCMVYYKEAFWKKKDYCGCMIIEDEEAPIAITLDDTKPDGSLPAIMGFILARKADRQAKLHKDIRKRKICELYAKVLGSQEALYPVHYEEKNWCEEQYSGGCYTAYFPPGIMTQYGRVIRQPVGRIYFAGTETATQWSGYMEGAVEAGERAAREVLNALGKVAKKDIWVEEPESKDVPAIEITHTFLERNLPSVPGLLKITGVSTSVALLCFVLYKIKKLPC

[24] = target: T2, Amine oxidase [flavin-containing] B (Homo sapiens, UniProt P27338); experiment: Inhibition of human MAO-B
T2 sequence (P27338 whole entry): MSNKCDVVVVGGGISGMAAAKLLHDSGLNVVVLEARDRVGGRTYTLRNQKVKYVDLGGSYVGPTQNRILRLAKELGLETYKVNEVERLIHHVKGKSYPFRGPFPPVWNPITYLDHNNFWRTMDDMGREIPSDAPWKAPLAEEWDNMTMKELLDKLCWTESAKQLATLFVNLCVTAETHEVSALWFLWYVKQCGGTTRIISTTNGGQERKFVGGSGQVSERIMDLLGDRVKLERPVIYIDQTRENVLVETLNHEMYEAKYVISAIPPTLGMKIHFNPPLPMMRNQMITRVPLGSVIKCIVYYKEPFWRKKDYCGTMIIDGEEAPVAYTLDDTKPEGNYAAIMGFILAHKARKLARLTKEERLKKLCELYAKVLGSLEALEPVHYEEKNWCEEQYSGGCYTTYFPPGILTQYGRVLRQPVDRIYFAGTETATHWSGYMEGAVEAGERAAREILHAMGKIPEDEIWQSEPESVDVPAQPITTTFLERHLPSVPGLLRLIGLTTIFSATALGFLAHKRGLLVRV

[25] = target: Amine oxidase [flavin-containing] B (Rattus norvegicus, UniProt P19643); experiment: Inhibition of rat brain synaptosome MAO-B; format: subcellular
Amine oxidase [flavin-containing] B (Rattus norvegicus, UniProt P19643), sequence (P19643 whole entry): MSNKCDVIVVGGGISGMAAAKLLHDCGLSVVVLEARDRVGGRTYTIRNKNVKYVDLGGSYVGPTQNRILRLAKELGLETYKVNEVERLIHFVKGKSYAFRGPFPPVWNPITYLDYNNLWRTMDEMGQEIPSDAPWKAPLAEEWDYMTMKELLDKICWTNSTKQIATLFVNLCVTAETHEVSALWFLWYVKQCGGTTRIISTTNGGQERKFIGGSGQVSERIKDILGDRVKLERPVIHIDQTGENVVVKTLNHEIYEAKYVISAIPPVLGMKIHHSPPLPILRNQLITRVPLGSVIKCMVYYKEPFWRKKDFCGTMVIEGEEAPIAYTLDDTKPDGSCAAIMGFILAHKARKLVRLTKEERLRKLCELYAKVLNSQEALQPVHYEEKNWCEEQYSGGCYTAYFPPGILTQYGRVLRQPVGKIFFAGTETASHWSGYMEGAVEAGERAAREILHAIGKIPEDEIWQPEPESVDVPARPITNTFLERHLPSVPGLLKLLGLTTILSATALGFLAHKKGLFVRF

[26] = target: T1, Amine oxidase [flavin-containing] A; experiment: Inhibition of human MAO-A
[27] = species on record: Homo sapiens; experiment: Selectivity index, ratio of Ki for human MAO-B to Ki for human MAO-A
[28] = target: T2, Amine oxidase [flavin-containing] B; experiment: Inhibition of MAO-B (unknown origin)
[29] = species on record: Mus musculus; experiment: Anticonvulsant activity in mouse by MES test; format: functional
[30] = Selectivity index, ratio of CC50 african green monkey Vero cells to IC50 for Mycobacterium tuberculosis; format: toxicity; conditions: read-out: Ratio CC50/IC50
[31] = system: Mycobacterium tuberculosis; experiment: Antibacterial activity against Mycobacterium tuberculosis; format: functional, organism-based
[32] = system: PC-12; experiment: Cytotoxicity against rat PC-12 cells; format: functional; conditions: read-out: LD50 (the source's name)
[33] = system: PC-12; experiment: Anti amyotrophic lateral sclerosis activity in rat PC-12 cells assessed as decrease in G93A SOD1 aggregate formation; format: functional; conditions: read-out: ED50 (the source's name)

## CSc1ccc(Cc2c(C(F)(F)F)n[nH]c2O)cc1
[1]
  Activity: 30%
[2]
  Activity: 57%
[3]
  Activity: 68%

## Cc1c(C(=O)CS(=O)(=O)c2ccccc2)c(=O)n(-c2ccccc2)n1C
[4]
  Activity: 32.16%
[5]
  IC50: 14700 nM
[6]
  Activity: 13.34%
[7]
  IC50: 63660 nM

## C#CCN(C)[C@H](C)Cc1ccccc1 [SELEGILINE]
[8]
  ED50: 300 nM

## Cc1cccc(C)c1/C=N/c1c(C)n(C)n(-c2ccccc2)c1=O
[9]
  inhibition: 96.3%
[10]
  IC50: 57 nM
[11]
  inhibition (INH): 42.3%

## NC(=S)N1N=C(N)/C(=C\c2cc(-c3ccc(Cl)cc3)nn2-c2ccccc2)C1=O
[12]
  IC50: 6300 nM

## C[C@@H]1C[C@H]2O[C@@H]2/C=C\C=C\C(=O)Cc2c(Cl)c(O)cc(O)c2C(=O)O1 [RADICICOL]
[13]
  Activity: 80%

## CC(=O)N1N=C(C)/C(=N/Nc2cc(Cl)cc(Cl)c2)C1=O
[14]
  MIC: ≤ 12.5 µg/mL
[15]
  MIC: > 200 µg/mL
[16]
  MIC: ≤ 12.5 µg/mL
[17]
  MIC: ≤ 12.5 µg/mL
[18]
  MIC: > 200 µg/mL

## CC1=NN(NCC(=O)c2ccccc2)C(=O)/C1=N/Nn1c(-c2ccccc2)nc2ccccc2c1=O
[19]
  selectivity ratio: 26.4
[20]
  MIC: 3.11 µg/mL (≈ 6.49 µM)

## Cn1cc(-c2[nH][nH]c(=O)c2-c2cn(C)c3ccccc23)c2ccccc21
[21]
  IC50: 34 nM

## Cc1ccc(C2=NN(c3ccccc3)C(=O)C23N=C([S@@+](C)[O-])N(C(=O)OC(C)(C)C)[C@]32C(=O)N(Cc3ccccc3)c3ccccc32)cc1 (some centres not stated)
[22]
  IC50: 390 nM

## Cc1c(C(=O)CC(C#N)C#N)c(=O)n(-c2ccccc2)n1C
[23]
  IC50: 2340 nM
[24]
  Ki: 121 nM
[25]
  IC50: 132 nM
[26]
  Ki: 0.014 nM
[27]
  Ratio Ki: 8670

## Cc1c(/N=C/c2ccc(OCCCN(C)C)cc2)c(=O)n(-c2ccccc2)n1C
[9]
  inhibition: 35.3%
[28]
  IC50: 49 nM
[11]
  inhibition (INH): 38.1%

## CC1=NN(c2ccccc2)C(=O)/C1=C\c1cn(-c2ccccc2)nc1-c1ccc(Cl)c(Cl)c1
[29]
  Activity: 79.76%

## O=C1CC(NC(=O)CNc2ccc(Cl)cc2)=NN1
[30]
  selectivity ratio: 633
[31]
  IC50: < 370 nM

## Cc1c(-c2cc(C#N)c(N)o2)c(=O)n(-c2ccccc2)n1C
[23]
  IC50: 7.99 nM
[24]
  Ki: 766 nM
[25]
  IC50: 45.4 nM
[26]
  Ki: 0.346 nM
[27]
  Ratio Ki: 2210

## O=C1CC(NC(=O)CN2CCNCC2)=NN1
[30]
  selectivity ratio: 631
[31]
  IC50: < 440 nM

## Cc1cc(SCc2cc(=O)[nH][nH]2)c(Cl)cc1Cl
[32]
  CC50: > 100000 nM
[33]
  EC50: 400 nM
